# Data as given in paper PMC6213900, “Design, Synthesis, and Cytotoxic Analysis of Novel Hederagenin–Pyrazine Derivatives Based on Partial Least Squares Discriminant Analysis” (International Journal of Molecular Sciences, 2018).
# What was measured:
# [1] = test system: A549 (human non-small-cell lung cancer); assay: MTT cytotoxicity assay, A549; type: cell-based; details: Homo sapiens, A549, 72 h treatment, read-out: Half Maximal Inhibitory Concentration (IC50) A549
# Protocol: (§1) The cytotoxicity of hederagenin derivatives in vitro was evaluated on three tumor cell lines (A549: human non-small-cell lung cancer; MCF-7: human mammary cancer; HepG2: human hepatocellular carcinoma) using the 3-(4,5-dimethylthiazol-2-yl)-2,5-diphenyltetrazolium bromide (MTT) assay. In addition, their toxicity evaluations were tested on H9c2 (murine heart myoblast) and MDCK (Madin–Darby canine kidney) cells. MCF-7, A549, HepG2, H9c2, and MDCK cells were obtained from the Chinese Academy of Medical Sciences and Peking Union Medical College. All of the cell lines were maintained in Dulbecco’s modified Eagle medium (DMEM) supplemented with 1% (v/v) penicillin/streptomycin and 10% (v/v) fetal bovine serum (FBS; Thermo Technologies, New York, NY, USA) under a humidified atmosphere containing 5% CO2 at 37 °C. The stock solutions of He derivatives were dissolved in dimethyl sulfoxide (DMSO; Sigma, St. Louis, MO, USA) and added at various concentrations to the cell culture. Cellular morphologies were observed using an inverted fluorescence microscope (Olympus IX71, Tokyo, Japan), a plate reader (BIORAD 550 spectrophotometer, Bio-rad Life Science Development Ltd., Beijing, China), and a Canton 2 flow cytometer (BD, New York, NY, USA). The antitumor activity of these compounds were evaluated on MCF-7, A549, HepG2, MDCK, and H9c2 cell lines using the MTT assay. Cells at a density of 3 × 10^3 cells/well were plated in a 96-multiwell plate in DMEM containing 10% FBS for 24 h at 37 °C with 5% CO2. Then, cells were treated for 72 h with the required concentrations (3.125, 6.25, 12.5, 25, or 50 μM) of the compounds and reference drugs (He and DDP) dissolved with the vehicle DMSO. After that, the culture substrate was replaced with 200 μL of DMEM containing 20 μL of MTT solution at 5 mg/mL and incubated for 4 h. The supernatant was removed and the dissolved formazans precipitated with 120 μL of DMSO. Wells without drugs were used as blanks. A plate reader was used to determine the absorbance at 490 nm. The above steps were repeated three times. The IC50 values were defined as the concentration of the compound which gave 50% growth inhibition, and they were calculated using Graph Pad Prism 5. The inhibition rate was calculated using the following formula, where OD is the optical density:% inhibition = 1 − (Sample group OD/Control group OD) × 100%. (1)
# [2] = test system: MCF-7 (human mammary cancer); assay: MTT cytotoxicity assay, MCF-7; type: cell-based; details: Homo sapiens, MCF7, 72 h treatment, read-out: Half Maximal Inhibitory Concentration (IC50) MCF-7
# Protocol: as §1
# [3] = test system: MDCK (Madin–Darby canine kidney) cells; assay: MTT toxicity evaluation, MDCK; type: cell-based; details: Canis lupus familiaris, MDCK, 72 h treatment, non-tumor cells, read-out: Half Maximal Inhibitory Concentration (IC50) MDCK
# Protocol: as §1
# [4] = test system: HepG2 (human hepatocellular carcinoma); assay: MTT cytotoxicity assay, HepG2; type: cell-based; details: Homo sapiens, HepG2; MTT, 72 h treatment; read-out: Half Maximal Inhibitory Concentration (IC50) HepG2
# Protocol: as §1
# [5] = test system: H9c2 (murine heart myoblast); assay: MTT toxicity evaluation, H9c2; type: cell-based; details: H9c2, 72 h treatment, non-tumor cells, read-out: Half Maximal Inhibitory Concentration (IC50) H9c2
# Protocol: as §1
Compound,IC50 [1],melting point,IC50 [2],IC50 [3],IC50 [4],IC50 [5]
"Cc1ncc(C(=O)OC[C@@]2(C)C3CC[C@]4(C)C(CC=C5C6CC(C)(C)CC[C@]6(C(=O)OCCCCCl)CC[C@]54C)[C@@]3(C)CC[C@@H]2O)nc1C (stereo partly drawn) [Compound 25, ((3S,4R,6aR,6bS,8aS,14bR)-8a-((4-Chlorobutoxy)carbonyl)-3-hydroxy-4,6a,6b,11,11,14b-hexamethyl-1,2,3,4,4a,5,6,6a,6b,7,8,8a,9,10,11,12,12a,14,14a,14b-icosahydropicen-4-yl)methyl 5,6-dimethylpyrazine-2-carboxylate]",> 30 µM,123.6 °C,15.6 ± 1.41 µM,> 30 µM,6.42 ± 0.24 µM,> 30 µM
"Cc1nc(C)c(C(=O)OC[C@@]2(C)C3CC[C@]4(C)C(CC=C5C6CC(C)(C)CC[C@]6(C(=O)OCCCCCl)CC[C@]54C)[C@@]3(C)CC[C@@H]2O)nc1C (stereo partly drawn) [Compound 26, ((3S,4R,6aR,6bS,8aS,14bR)-8a-((4-Chlorobutoxy)carbonyl)-3-hydroxy-4,6a,6b,11,11,14b-hexamethyl-1,2,3,4,4a,5,6,6a,6b,7,8,8a,9,10,11,12,12a,14,14a,14b-icosahydropicen-4-yl)methyl 3,5,6-trimethylpyrazine-2-carboxylate]",> 30 µM,168.1 °C,18.3 ± 1.16 µM,> 30 µM,7.15 ± 0.85 µM,> 30 µM
